Target: Flap endonuclease 1 (Homo sapiens, UniProt P39748)
Experiment: Enzymatic IC50 Assays: FEN1, EXO1 or XPG enzyme was incubated with compound or vehicle (DMSO) and the FAM-labeled DNA oligomer substrate in a microtiter plate. The stop buffer contains EDTA to stop the enzymatic reaction. The plate is read for fluorescence intensity. The high control (DMSO) with high fluorescence intensity represents no inhibition of enzymatic reaction while the low control (10 μM) with low fluorescence intensity represents full inhibition of enzymatic reaction.

Flap endonuclease 1, sequence (P39748 whole entry): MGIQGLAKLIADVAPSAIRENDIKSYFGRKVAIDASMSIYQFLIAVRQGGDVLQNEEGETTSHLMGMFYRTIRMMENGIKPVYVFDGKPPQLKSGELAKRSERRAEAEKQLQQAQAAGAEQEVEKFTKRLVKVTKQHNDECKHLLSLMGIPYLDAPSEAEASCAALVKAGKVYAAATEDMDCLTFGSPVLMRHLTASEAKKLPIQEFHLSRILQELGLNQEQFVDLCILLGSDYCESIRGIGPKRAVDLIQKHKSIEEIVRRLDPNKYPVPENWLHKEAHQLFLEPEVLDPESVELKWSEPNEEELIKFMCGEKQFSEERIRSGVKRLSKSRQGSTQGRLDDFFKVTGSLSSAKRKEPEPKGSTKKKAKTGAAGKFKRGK

SMILES | IC50
O=C(O)c1c(O)c(=O)n(Cc2cnn(-c3cccc(Cl)c3)c2)c2ccsc12 | < 200 nM
Cc1c(Cn2c(=O)c(O)c(C(=O)O)c3sccc32)cnn1C | < 200 nM
COc1ccc(Cn2cc(Cn3c(=O)c(O)c(C(=O)O)c4sccc43)cn2)cc1 | < 200 nM
O=C(O)c1c(O)c(=O)n(Cc2cnc3ccccn23)c2ccsc12 | < 200 nM
COc1cccc(-n2cc(Cn3c(=O)c(O)c(C(=O)O)c4sccc43)cn2)c1 | < 200 nM
COc1ccc(Cn2c(=O)c(O)c(C(=O)O)c3sccc32)cn1 | < 200 nM

Source: ChEMBL document CHEMBL5729604, “Dihydrothieno[3,2-b]pyridine compounds” (2023)
